PubChem BioAssay (NCI)
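A five-concentration, 48-hour dose response in 96-well plates underlies each endpoint, interpolated linearly between surrounding concentrations. TGI denotes the concentration required for complete inhibition of growth.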

Experiments:
Assay in all cases: NCI-60 cell line screen, 48 h
[1] = tested on: 786-0 renal
[2] = tested on: A498 renal
[3] = tested on: A549 NSCLC
[4] = tested on: ACHN renal
[5] = tested on: BT-549 breast
[6] = tested on: CAKI-1 renal
[7] = tested on: CCRF-CEM leukemia
[8] = tested on: COLO 205 colon
[9] = tested on: DU-145 prostate
[10] = tested on: EKVX NSCLC
[11] = tested on: HCC-2998 colon
[12] = tested on: HCT-116 colon
[13] = tested on: HCT-15 colon
[14] = tested on: HL-60(TB) leukemia
[15] = tested on: HOP-62 NSCLC
[16] = tested on: HOP-92 NSCLC
[17] = tested on: HS 578T breast
[18] = tested on: HT29 colon
[19] = tested on: IGROV1 ovarian
[20] = tested on: K-562 leukemia
[21] = tested on: KM12 colon
[22] = tested on: M14 melanoma
[23] = tested on: MALME-3M melanoma
[24] = tested on: MCF7 breast
[25] = tested on: MDA-MB-231 breast
[26] = tested on: MDA-MB-435
[27] = tested on: MDA-N
[28] = tested on: MOLT-4 leukemia
[29] = tested on: NCI-H226 lung
[30] = tested on: NCI-H23 lung
[31] = tested on: NCI-H460 lung
[32] = tested on: NCI-H522 lung
[33] = tested on: NCI/ADR-RES ovarian
[34] = tested on: OVCAR-3 ovarian
[35] = tested on: OVCAR-4 ovarian
[36] = tested on: OVCAR-5 ovarian
[37] = tested on: OVCAR-8 ovarian
[38] = tested on: PC-3 prostate
[39] = tested on: RPMI-8226 leukemia
[40] = tested on: RXF 393 renal
[41] = tested on: SF-268 CNS
[42] = tested on: SF-295 CNS
[43] = tested on: SF-539 CNS
[44] = tested on: SK-MEL-2 melanoma
[45] = tested on: SK-MEL-5 melanoma
[46] = tested on: SK-OV-3 ovarian
[47] = tested on: SN12C renal
[48] = tested on: SNB-19 CNS
[49] = tested on: SNB-75 CNS
[50] = tested on: SR leukemia
[51] = tested on: SW-620 colon
[52] = tested on: TK-10 renal
[53] = tested on: U251 CNS
[54] = tested on: UACC-257 melanoma
[55] = tested on: UACC-62 melanoma
[56] = tested on: UO-31 renal
[57] = tested on: SK-MEL-28 melanoma
[58] = tested on: T-47D breast

`CN(/N=C/c1cccc2cccnc12)c1ccc(Cl)cc1[N+](=O)[O-]` was tested, and the TGI [1] was > 100 µM, the TGI [2] was > 100 µM and the TGI [3] was > 100 µM. For the same compound, the TGI [4] was > 100 µM, the TGI [5] was > 100 µM and the TGI [6] was > 100 µM. The TGI [7] was > 100 µM, the TGI [8] was > 100 µM and the TGI [9] was > 100 µM. The TGI [10] was > 100 µM, the TGI [11] was > 100 µM and the TGI [12] was > 100 µM. For the same compound, the TGI [13] was > 100 µM, the TGI [14] was > 100 µM and the TGI [15] was > 100 µM. The TGI [16] was > 100 µM, the TGI [17] was > 100 µM and the TGI [18] was > 100 µM. The TGI [19] was > 100 µM, the TGI [20] was > 100 µM and the TGI [21] was > 100 µM. For the same compound, the TGI [22] was > 100 µM, the TGI [23] was > 100 µM and the TGI [24] was > 100 µM. For the same compound, the TGI [25] was > 100 µM, the TGI [26] was > 100 µM and the TGI [27] was > 100 µM. The TGI [28] was > 100 µM, the TGI [29] was > 100 µM and the TGI [30] was > 100 µM. The TGI [31] was > 100 µM, the TGI [32] was > 100 µM and the TGI [33] was > 100 µM. The TGI [34] was > 100 µM, the TGI [35] was > 100 µM and the TGI [36] was > 100 µM. The TGI [37] was > 100 µM, the TGI [38] was > 100 µM and the TGI [39] was > 100 µM. The TGI [40] was > 100 µM, the TGI [41] was > 100 µM and the TGI [42] was > 100 µM. The TGI [43] was > 100 µM, the TGI [44] was > 100 µM and the TGI [45] was > 100 µM. For the same compound, the TGI [46] was > 100 µM, the TGI [47] was > 100 µM and the TGI [48] was > 100 µM. For the same compound, the TGI [49] was > 100 µM, the TGI [50] was > 100 µM and the TGI [51] was > 100 µM. For the same compound, the TGI [52] was > 100 µM, the TGI [53] was > 100 µM and the TGI [54] was > 100 µM. The TGI [55] was > 100 µM and the TGI [56] was > 100 µM.
For `O=C(Nc1ccc2[nH]c(C(=O)N3CC(CCl)c4c3cc([N+](=O)[O-])c3ccccc43)cc2c1)Nc1ccc2[nH]c(C(=O)N3CC(CCl)c4c3cc([N+](=O)[O-])c3ccccc43)cc2c1` (stereo not drawn), the TGI [1] was > 100 µM, the TGI [2] was > 100 µM and the TGI [3] was > 100 µM. The TGI [4] was > 100 µM, the TGI [5] was > 100 µM and the TGI [6] was > 100 µM. The TGI [7] was 36.9 µM, the TGI [8] was > 100 µM and the TGI [9] was > 100 µM. The TGI [10] was > 100 µM, the TGI [12] was > 100 µM and the TGI [13] was > 100 µM. The TGI [15] was > 100 µM, the TGI [16] was > 100 µM and the TGI [21] was > 100 µM. For the same compound, the TGI [22] was > 100 µM, the TGI [23] was > 100 µM and the TGI [24] was > 100 µM. For the same compound, the TGI [25] was > 100 µM, the TGI [26] was > 100 µM and the TGI [27] was > 100 µM. For the same compound, the TGI [29] was > 100 µM, the TGI [30] was > 100 µM and the TGI [31] was > 100 µM. The TGI [32] was > 100 µM, the TGI [33] was > 100 µM and the TGI [34] was > 100 µM. For the same compound, the TGI [35] was > 100 µM, the TGI [36] was > 100 µM and the TGI [38] was > 100 µM. The TGI [39] was > 100 µM, the TGI [41] was > 100 µM and the TGI [42] was > 100 µM. The TGI [43] was > 100 µM, the TGI [44] was > 100 µM and the TGI [57] was > 100 µM. For the same compound, the TGI [45] was > 100 µM, the TGI [46] was > 100 µM and the TGI [47] was > 100 µM. The TGI [48] was > 100 µM, the TGI [49] was > 100 µM and the TGI [58] was > 100 µM. For the same compound, the TGI [52] was > 100 µM, the TGI [53] was > 100 µM and the TGI [54] was > 100 µM. The TGI [55] was > 100 µM and the TGI [56] was 41.1 µM.
